Assay [1] concerns the target T1, Carboxylic ester hydrolase (Sus scrofa) (UniProt A0A286ZKB1).
T1 sequence (whole entry): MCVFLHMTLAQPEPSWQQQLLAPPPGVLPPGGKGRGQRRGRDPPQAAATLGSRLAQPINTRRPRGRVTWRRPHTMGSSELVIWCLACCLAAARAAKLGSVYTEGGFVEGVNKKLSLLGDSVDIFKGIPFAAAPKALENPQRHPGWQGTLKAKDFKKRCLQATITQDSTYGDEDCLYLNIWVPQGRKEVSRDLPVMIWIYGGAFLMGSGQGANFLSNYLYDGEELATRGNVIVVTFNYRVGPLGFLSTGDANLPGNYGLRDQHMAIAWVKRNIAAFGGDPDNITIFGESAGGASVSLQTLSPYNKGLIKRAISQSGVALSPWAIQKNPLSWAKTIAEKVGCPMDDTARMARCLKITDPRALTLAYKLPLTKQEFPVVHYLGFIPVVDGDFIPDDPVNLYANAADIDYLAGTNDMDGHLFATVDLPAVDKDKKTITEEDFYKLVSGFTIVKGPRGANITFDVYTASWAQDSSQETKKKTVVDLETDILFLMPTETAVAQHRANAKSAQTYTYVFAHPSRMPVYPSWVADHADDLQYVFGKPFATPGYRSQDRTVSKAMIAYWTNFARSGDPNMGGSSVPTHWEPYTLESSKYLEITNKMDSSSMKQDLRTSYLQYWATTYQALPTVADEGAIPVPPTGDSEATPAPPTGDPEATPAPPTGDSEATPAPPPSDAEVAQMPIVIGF
In words: Inhibition of porcine cholesterol esterase at 10 nM using para-nitrophenyl butyrate as substrate after 5 mins in presence of sodium taurocholate by spectrophotometric method relative to control.

The target in assay [2] is T1, Carboxylic ester hydrolase (Sus scrofa). In words: Inhibition of porcine cholesterol esterase at 25 nM using para-nitrophenyl butyrate as substrate after 5 mins in presence of sodium taurocholate by spectrophotometric method relative to control.
The target is the same in assay [3]. In words: Inhibition of porcine cholesterol esterase at 50 nM using para-nitrophenyl butyrate as substrate after 5 mins in presence of sodium taurocholate by spectrophotometric method relative to control.
For assay [4] the target is unchanged. In words: Mixed-type inhibition of porcine cholesterol esterase at 1 to 50 nM using para-nitrophenyl butyrate as substrate after 5 mins in presence of sodium taurocholate by Line-weaver-Burk plot analysis.
Assay [5] shares this target. In words: Inhibition of porcine cholesterol esterase at 5 nM using para-nitrophenyl butyrate as substrate after 5 mins in presence of sodium taurocholate by spectrophotometric method relative to control.
Assay [6] shares this target. In words: Inhibition of porcine cholesterol esterase at 1 nM using para-nitrophenyl butyrate as substrate after 5 mins in presence of sodium taurocholate by spectrophotometric method relative to control.
For assay [7], the target named is T2, Carboxylic ester hydrolase (Sus scrofa, UniProt A0A286ZKB1).
T2 sequence (A0A286ZKB1 whole entry): T1 sequence (whole entry)
In words: Inhibition of porcine cholesterol esterase using para-nitrophenyl butyrate as substrate after 5 mins in presence of sodium taurocholate by spectrophotometric method.

Each structure is given as a SMILES string. Active and inactive are the calls of the source. The rule behind the calls is not given here.

Broadly, the inhibition is the change of the read-out against control, counted positive when it falls. What is called IC50 is the concentration that inhibits the measured activity by half.

For the compound `O=c1cc(-c2cc(F)cc(F)c2)oc2c1ccc1ccccc12`, the inhibition in assay [1] turned out to be 90%; in assay [2] it was 96%; in assay [3] it was 100%; in assay [5] it was 80%; in assay [6] it was 60%. Further, in assay [4], the inhibition entry was “Active”. In addition, the IC50 in assay [7] (read-out: IC50) amounted to 0.78 nM.

Regarding `O=c1cc(-c2ccccc2C(F)(F)F)oc2c1ccc1ccccc12`, the inhibition is 36% in assay [1]; 48% in assay [2]; 58% in assay [3]; 32% in assay [5]; 29% in assay [6]. Also, the IC50 entry in assay [7] is listed as “Not Active”.

For the compound `COc1ccc(-c2cc(=O)c3ccc4ccccc4c3o2)cc1`, the inhibition in assay [1] is 22%; in assay [2], 28%; in assay [3], 31%; in assay [5], 18%; in assay [6], 11%. For the same compound, the IC50 entry in assay [7] was “Not Active”.

On to `O=c1cc(-c2c(F)cccc2C(F)(F)F)oc2c1ccc1ccccc12`, for which the inhibition turned out to be 52% in assay [1]; 59% in assay [2]; 64% in assay [3]; 48% in assay [5]; 31% in assay [6]. Also, the IC50 in assay [7] (read-out: IC50) was found to be 38.9 nM.

For `O=c1cc(-c2cccc(Cl)c2)oc2c1ccc1ccccc12`, the inhibition worked out at 80% in assay [1]; 83% in assay [2]; 85% in assay [3]; 68% in assay [5]; 51% in assay [6]. Also, the IC50 in assay [7] (read-out: IC50) was found to be 6.99 nM.

For `O=c1cc(-c2cc(F)ccc2C(F)(F)F)oc2c1ccc1ccccc12`, the inhibition is 41% in assay [1]; 54% in assay [2]; 63% in assay [3]; 34% in assay [5]; 26% in assay [6]. For the same compound, the IC50 in assay [7] (read-out: IC50) worked out at 41.3 nM.

`CC(=O)Oc1cccc(-c2cc(=O)c3ccc4ccccc4c3o2)c1`: the inhibition in assay [1] was determined as 36%; in assay [2], 47%; in assay [3] it was 55%; in assay [5], 27%; in assay [6] it was 23%. Also, the IC50 entry in assay [7] is listed as “Not Active”.

With `CC(=O)Oc1ccc(-c2cc(=O)c3ccc4ccccc4c3o2)cc1`, the inhibition in assay [1] turned out to be 34%; in assay [2], 46%; in assay [3] it was 56%; in assay [5], 28%; in assay [6] it was 21%. Moreover, the IC50 entry in assay [7] is listed as “Not Active”.

On to `O=c1cc(-c2ccc(C(F)(F)F)cc2)oc2c1ccc1ccccc12`, for which the inhibition in assay [1] was determined as 35%; in assay [2] it was 46%; in assay [3], 56%; in assay [5] it was 29%; in assay [6] it was 25%. Besides, the 50% inhibitory concentration (IC50) entry in assay [7] is recorded as “Not Active”.

Turning to `O=c1cc(-c2cccc(CCl)c2)oc2c1ccc1ccccc12`, the inhibition worked out at 52% in assay [1]; 62% in assay [2]; 68% in assay [3]; 45% in assay [5]; 35% in assay [6]. Further, the IC50 in assay [7] (read-out: IC50) came out at 40 nM.

Consider `O=c1cc(-c2ccc(Br)cc2)oc2c1ccc1ccccc12`, for which the inhibition in assay [1] came out at 74%; in assay [2], 76%; in assay [3], 77%; in assay [5], 59%; in assay [6] it was 40%. Further, the IC50 in assay [7] (read-out: IC50) is 28.5 nM.

As to `O=c1cc(-c2ccc(F)cc2C(F)(F)F)oc2c1ccc1ccccc12`, the inhibition was determined as 44% in assay [1]; 55% in assay [2]; 63% in assay [3]; 38% in assay [5]; 28% in assay [6]. Further, the IC50 in assay [7] (read-out: IC50) was determined as 39.1 nM.

As to `O=c1cc(-c2ccccc2Br)oc2c1ccc1ccccc12`, the inhibition in assay [1] is 79%; in assay [2] it was 81%; in assay [3] it was 83%; in assay [5], 66%; in assay [6], 51%. The half-inhibitory concentration (IC50) in assay [7] (read-out: IC50) came out at 11 nM.

Consider `O=c1cc(-c2ccccc2)oc2c1ccc1ccccc12` [ALPHA-NAPHTHOFLAVONE], for which the inhibition in assay [1] was found to be 40%; in assay [2], 48%; in assay [3], 51%; in assay [5] it was 33%; in assay [6] it was 28%. Also, the IC50 in assay [7] (read-out: IC50) is 47.8 nM.

On to `O=c1cc(-c2cc(F)cc(C(F)(F)F)c2)oc2c1ccc1ccccc12`, for which the inhibition in assay [1] came to 41%; in assay [2], 54%; in assay [3], 62%; in assay [5], 38%; in assay [6] it was 27%. Besides, the IC50 in assay [7] (read-out: IC50) turned out to be 43 nM.

For the compound `O=c1cc(-c2cc([N+](=O)[O-])cc([N+](=O)[O-])c2)oc2c1ccc1ccccc12`, the inhibition worked out at 72% in assay [1]; 75% in assay [2]; 76% in assay [3]; 54% in assay [5]; 41% in assay [6]. Moreover, the IC50 in assay [7] (read-out: IC50) was 30 nM.

Values taken from ChEMBL document CHEMBL4002634, “Benzoflavones as cholesterol esterase inhibitors: Synthesis, biological evaluation and docking studies” (Bioorg Med Chem Lett, 2017).
